Laboratory results reported in patent US20260209205A1, “CRYSTALLINE FORMS OF A TYK2 INHIBITOR AND USES THEREOF” (Alumis Inc., priority 2022, published 2026).
Structures can show the parent of a compound that is named as a salt.

Assays:
Type in all cases: physicochemical
[1] = Dynamic vapor sorption (DVS) / hygroscopicity
[2] = Solid-state chemical and physical stability on storage
[3] = Interconversion studies of Form 1 and Form 2 stirred in solvents; conditions: isopropanol (50° C., 7 days), acetone (50° C., 3 days), acetone/water 9/1 v/v (50° C., 1 day; room temperature, 1 day)
Description: In interconversion studies, equal amounts of Form 1 and Form 2 were added in various solvents and stirred at various temperatures for several days.

Hygroscopicity [1]: slightly hygroscopic
Form change after DVS analysis ([1]; after DVS analysis): No form change
DVS reversable total mass change ([1]; between about 0% to about 80% relative humidity (RH) at 25° C.): about 0.2 wt. %
DVS reversable total mass change ([1]; between about 0% to about 90% relative humidity (RH) at 25° C.): about 0.3 wt. %
Time chemically and physically stable in the solid form ([2]; 40° C./75% RH): at least 10 days
Time chemically and physically stable in the solid form ([2]; 60° C.): at least 10 days
Time chemically and physically stable ([2]; ambient temperature and humidity): at least 12 months
Relative stability of crystalline forms (form obtained from equal amounts of Form 1 and Form 2) [3]: more stable crystalline form
SMILES: [2H]C([2H])([2H])CC(=O)c1cnc(NC(=O)C2CC2)cc1Nc1cccc(-c2ncn(C([2H])([2H])[2H])n2)c1OC [Form 1, N-(4-((2-methoxy-3-(1-(methyl-d3)-1H-1,2,4-triazol-3-yl)phenyl)amino)-5-(propanoyl-3,3,3-d3)pyridin-2-yl) cyclopropanecarboxamide hydrochloride]
